This note sets out measurements from US8637510B2, “Morpholinothiazoles as alpha 7 positive allosteric modulators” (Janssen Pharmaceutica NV, priority 2009, dated 2014).

The target of this test is T1, human alpha 7-wt nAChR (Homo sapiens, UniProt P36544).
T1 construct: expressed in transfected cells
The test is described as follows: Ca2+ flux imaging (FDSS) (Protocol B). Type of test: cell-based. Particulars: for Emax: efficacy of 100 μM choline defined as 100% in the absence of a PAM, read-out: a7-PAM-G_[33]_Eff_Curve_FI % Efficacy; for EC50: potentiation of 100 μM choline, compounds 0.01 μM to 30 μM, read-out: a7-PAM-G_[33]_pEC50 pEC50 (converted). Here is the method:
Ca^2+ Flux Imaging (FDSS) (Protocol B)
• Hanks buffered saline solution (HBSS, Invitrogen, Belgium), supplemented with 10 mM HEPES (Invitrogen, Belgium), CaCl2 to a final concentration of 5 mM, 0.1% Bovine serum albumin (Sigma-Aldrich NV, Belgium). b) Calcium-Sensitive Dye—Fluo-4AM • Fluo-4AM (Molecular Probes, USA) was dissolved in DMSO containing 10% Pluronic acid (Molecular Probes, USA) to give a stock solution which was diluted in assay buffer supplemented with 5 mM probenicid (Sigma, Aldrich NV, Belgium) to give a final concentration of 2 μM. c) 384-Well Plates • Black-sided, transparent bottomed 384 well plates coated with poly-D-lysine, PDL pre-coated (Corning, Incorporated, USA) d) Calcium Flux Measurement • A Functional drug screening system (FDSS, Hamamatsu) was used to measure intracellular free-calcium flux signals. Method
Monolayers of human alpha 7-wt nAChR-expressing cells were grown in black-sided, transparent bottomed 384 well plates coated with PDL for 24 hours prior to loading with a fluorescent calcium indicator, fluo-4AM for up to 120 minutes.
PAM activity was detected in real time by applying the compounds to be tested to the loaded cells along with an alpha 7 nicotinic receptor agonist during constant monitoring of cellular fluorescence in a FDSS. Compounds giving peak fluorescent responses greater than the response due to agonist alone, were considered to be alpha 7 nAChR PAMs. The alpha 7 nicotinic receptor agonist was choline, applied at a sub-maximal concentration of 100 μM. In a further setting of the present invention the compounds were applied prior to the alpha 7 nicotinic receptor agonist, in a particular 10 minutes prior to the agonist.
A control response to choline was calculated on each plate from the difference in peak in fluorescence in wells receiving either choline or assay buffer alone. Compounds of the present invention were tested at a concentration range from 0.01 μM to 30 μM. Compounds were considered to have an interesting activity when they potentiated the choline signal at least with 200% when tested at a concentration of 30 μM (the efficacy of 100 μM choline was defined as 100% in the absence of a PAM). An EC50 (or pEC50) was determined as a concentration relating to half the maximal effect, when a clear sigmoidal curve with top plateau was obtained.
(Calcium flux is commonly read through the fluorescence of an indicator in the cells.)

T1 sequence (P36544 23-502): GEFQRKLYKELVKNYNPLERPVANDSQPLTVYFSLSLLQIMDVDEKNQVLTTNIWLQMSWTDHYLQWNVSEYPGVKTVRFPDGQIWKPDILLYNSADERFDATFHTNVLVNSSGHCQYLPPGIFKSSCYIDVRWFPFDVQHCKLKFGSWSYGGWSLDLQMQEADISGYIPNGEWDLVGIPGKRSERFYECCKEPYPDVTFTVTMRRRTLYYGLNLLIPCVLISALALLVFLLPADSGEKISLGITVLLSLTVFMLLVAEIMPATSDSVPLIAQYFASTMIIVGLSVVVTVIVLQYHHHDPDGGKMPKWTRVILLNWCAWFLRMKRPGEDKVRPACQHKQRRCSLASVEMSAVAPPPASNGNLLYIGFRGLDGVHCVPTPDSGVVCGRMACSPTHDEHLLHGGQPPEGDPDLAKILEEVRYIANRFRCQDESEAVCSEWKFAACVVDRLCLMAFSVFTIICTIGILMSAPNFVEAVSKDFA

Consider `Cc1cc(-c2sc(N3C[C@@H](C)O[C@@H](C)C3)nc2CNC(=O)c2cn(C)nc2C)cc(C)n1` [Compound 169, N-[[2-[(2R,6S)-2,6-dimethyl-4-morpholinyl]-5-(2,6-dimethyl-4-pyridinyl)-4-thiazolyl]methyl]-1,3-dimethyl-1H-pyrazole-4-carboxamide], for which the Emax was found to be 671%.
With `Cc1cc(-c2sc(N3CC(C)OC(C)C3)nc2CNC(=O)c2conc2C)cc(C)n1` (racemic) [Compound 68, N-[[2-[2,6-dimethyl-4-morpholinyl]-5-(2,6-dimethyl-4-pyridinyl)-4-thiazolyl]methyl]-3-methyl-4-isoxazolecarboxamide], the EC50 is 0.912 µM.
`Cc1cc(-c2sc(N3C[C@@H](C)O[C@@H](C)C3)nc2CNC(=O)c2cc(C)nn2C(C)(C)C)cc(C)n1` [Compound 129, 1-(1,1-dimethylethyl)-N-[[2-[(2R,6S)-2,6-dimethyl-4-morpholinyl]-5-(2,6-dimethyl-4-pyridinyl)-4-thiazolyl]methyl]-3-methyl-1H-pyrazole-5-carboxamide]: the EC50 is 0.912 µM.
Consider `Cc1cc(-c2sc(N3C[C@@H](C)O[C@@H](C)C3)nc2CNC(=O)CCCC(F)(F)F)cc(C)n1` [Compound 145, N-[[2-[(2R,6S)-2,6-dimethyl-4-morpholinyl]-5-(2,6-dimethyl-4-pyridinyl)-4-thiazolyl]methyl]-5,5,5-trifluoro-pentanamide], for which the EC50 is 0.148 µM.
For `Cc1cc(-c2sc(N3C[C@@H](C)O[C@@H](C)C3)nc2CNC(=O)c2ccccc2)cc(C)n1` [Compound 27, N-[[2-[(2R,6S)-2,6-dimethyl-4-morpholinyl]-5-(2,6-dimethyl-4-pyridinyl)-4-thiazolyl]methyl]-benzamide], the Emax came out at 403% and the EC50 is 0.525 µM.
For the molecule `Cc1cc(-c2sc(N3C[C@@H](C)O[C@@H](C)C3)nc2CNC(=O)c2ccccc2F)ccn1` [Compound 92, N-[[2-[(2R,6S)-2,6-dimethyl-4-morpholinyl]-5-(2-methyl-4-pyridinyl)-4-thiazolyl]methyl]-2-fluoro-benzamide], the Emax was 523% and the EC50 was 0.661 µM.
The matching figures for `Cc1cc(-c2sc(N3C[C@@H](C)O[C@@H](C)C3)nc2CNC(=O)[C@H]2CCOC2)cc(C)n1` [Compound 28, (3S)-N-[[2-[(2R,6S)-2,6-dimethyl-4-morpholinyl]-5-(2,6-dimethyl-4-pyridinyl)-4-thiazolyl]methyl]tetrahydro-3-furancarboxamide]: 409% and 0.447 µM.
As for `Cc1cc(-c2sc(N3C[C@@H](C(F)(F)F)O[C@@H](C)C3)nc2CNC(=O)CC2CC2)cc(C)n1` [Compound 204, N-[[5-(2,6-dimethyl-4-pyridinyl)-2-[(2S,6S)-2-methyl-6-(trifluoromethyl)-4-morpholinyl]-4-thiazolyl]methyl]-cyclopropaneacetamide], the Emax worked out at 392% and the EC50 was 0.0316 µM.
With `Cc1cc(-c2sc(N3CCOC[C@@H]3C)nc2CNC(=O)c2conc2C)cc(C)n1` [Compound 185, N-[[5-(2,6-dimethyl-4-pyridinyl)-2-[(3S)-3-methyl-4-morpholinyl]-4-thiazolyl]methyl]-3-methyl-4-isoxazolecarboxamide], the Emax was 835% and the EC50 was 4.79 µM.
For `Cc1cc(-c2sc(N3C[C@@H](C)O[C@@H](C)C3)nc2CNC(=O)CCC(C)C)cc(C)n1` [Compound 51, N-[[2-[(2R,6S)-2,6-dimethyl-4-morpholinyl]-5-(2,6-dimethyl-4-pyridinyl)-4-thiazolyl]methyl]-4-methyl-pentanamide], in that order: 960% and 0.0603 µM.
For `Cc1cc(-c2sc(N3C[C@@H](C)O[C@@H](C)C3)nc2CNC(=O)c2sc(C)nc2C)cc(C)n1` [Compound 29, N-[[2-[(2R,6S)-2,6-dimethyl-4-morpholinyl]-5-(2,6-dimethyl-4-pyridinyl)-4-thiazolyl]methyl]-2,4-dimethyl-5-thiazolecarboxamide], the Emax was found to be 593%.
`Cc1cc(-c2sc(N3C[C@@H](C)O[C@@H](C)C3)nc2CNC(=O)c2cc(C(C)(C)C)on2)cc(C)n1` [Compound 143, 5-(1,1-dimethylethyl)-N-[[2-[(2R,6S)-2,6-dimethyl-4-morpholinyl]-5-(2,6-dimethyl-4-pyridinyl)-4-thiazolyl]methyl]-3-isoxazolecarboxamide]: the EC50 is 0.891 µM.
With `Cc1cc(-c2sc(N3CCOC[C@@H]3C)nc2CNC(=O)c2cc(C)on2)cc(C)n1` [Compound 186, N-[[5-(2,6-dimethyl-4-pyridinyl)-2-[(3S)-3-methyl-4-morpholinyl]-4-thiazolyl]methyl]-5-methyl-3-isoxazolecarboxamide], the Emax stood at 945% and the EC50 is 3.8 µM.
The matching figures for `COc1cccc(C(=O)NCc2nc(N3C[C@@H](C)O[C@@H](C)C3)sc2-c2cc(C)nc(C)c2)n1` [Compound 140, N-[[2-[(2R,6S)-2,6-dimethyl-4-morpholinyl]-5-(2,6-dimethyl-4-pyridinyl)-4-thiazolyl]methyl]-6-methoxy-2-pyridinecarboxamide]: 451% and 1.2 µM.
The matching figures for `Cc1cc(-c2sc(N3C[C@@H](C)O[C@@H](C)C3)nc2CNC(=O)c2ccc(Cl)cc2C)cc(C)n1` [Compound 22, 4-chloro-N-[[2-[(2R,6S)-2,6-dimethyl-4-morpholinyl]-5-(2,6-dimethyl-4-pyridinyl)-4-thiazolyl]methyl]-2-methyl-benzamide]: 484% and 0.02 µM.
`Cc1nocc1C(=O)NCc1nc(N2C[C@@H](C)O[C@@H](C)C2)sc1-c1ccncc1` [Compound 101, N-[[2-[(2R,6S)-2,6-dimethyl-4-morpholinyl]-5-(4-pyridinyl)-4-thiazolyl]methyl]-3-methyl-4-isoxazolecarboxamide]: the EC50 was 6.61 µM.
Consider `Cc1cc(-c2sc(N3CC(C)OC(C)C3)nc2CNC(=O)C2CCC2)cc(C)n1` (racemic) [Compound 57, N-[[2-[2,6-dimethyl-4-morpholinyl]-5-(2,6-dimethyl-4-pyridinyl)-4-thiazolyl]methyl]-cyclobutanecarboxamide], for which the Emax was 783% and the EC50 is 0.692 µM.
On to `COc1nc(C)c(C(=O)NCc2nc(N3C[C@@H](C)O[C@@H](C)C3)sc2-c2cc(C)nc(C)c2)s1` [Compound 158, N-[[2-[(2R,6S)-2,6-dimethyl-4-morpholinyl]-5-(2,6-dimethyl-4-pyridinyl)-4-thiazolyl]methyl]-2-methoxy-4-methyl-5-thiazolecarboxamide], for which the Emax was 951% and the EC50 is 1.58 µM.
As to `CC(=O)NCc1nc(N2C[C@@H](C)O[C@@H](C)C2)sc1-c1cc(C)nc(C)c1` [Compound 60, N-[[2-[(2R,6S)-2,6-dimethyl-4-morpholinyl]-5-(2,6-dimethyl-4-pyridinyl)-4-thiazolyl]methyl]-acetamide], the Emax was 495%.
As for `Cc1cc(-c2sc(N3CC(C)OC(C)C3)nc2CNC(=O)c2ccc(F)cc2C)cc(C)n1` (racemic) [Compound 56, N-[[2-[2,6-dimethyl-4-morpholinyl]-5-(2,6-dimethyl-4-pyridinyl)-4-thiazolyl]methyl]-4-fluoro-2-methyl-benzamide], the EC50 was 0.234 µM.
